Structures are written as SMILES.

The data set can be described thus: Metabolic stability assay in human liver microsomes. It is filed as in vitro ADME. Conditions: for microsomal CLint at 1 μM: human liver microsomes 0.2 mg/mL, test compound 1 μM, NADPH/NADH, n = 4, read-out: hepatic intrinsic clearance (Clint). The method, then: The following reaction system was prepared with reference to the method disclosed by Obach, and that disclosed by Jones et al. (References 1 and 2), and the metabolic stability thereof was evaluated. Note that the human liver microsomes used were purchased from BD Gentest. The test compound was dissolved in DMSO to have a concentration of 10 mM and diluted with acetonitrile in such a manner that its concentration became 100 μM.
A reaction system without a coenzyme was preincubated at 37° C. for 5 minutes, and a coenzyme was then added to start the reaction. After the addition of the coenzyme, the incubation was performed at selected time intervals, i.e., 0, 5, 10, 20, 30 and 60 minutes to extract a portion of the reaction mixture. The extracted reaction mixture was added to an acetonitrile solution containing an internal standard substance and the reaction was then terminated.
After the reaction was terminated, the resulting mixture was centrifuged, the supernatant was poured into a liquid chromatograph tandem mass spectrometer (LC-MS/MS) to determine the level of unchanged substance remaining in the reaction system. Ionization was performed by electro-spray ionization (ESI) in a positive ion detection mode. Here, selected reaction monitoring (MRM) using preset precursor ions and product ions was employed.
The remaining ratio of the test compound was calculated by the following equation. Remaining ratio=(peak area of the test compound at the reaction time of t minutes/peak area of the internal standard substance)÷(peak area of the test compound at the reaction time of 0 minutes/peak area of the internal standard substance)
A nonlinear least-squares analysis was performed in terms of the remaining ratio and incubation time to obtain the elimination rate constant (0.693/t1/2), and, further, the hepatic intrinsic clearance (Clint) was obtained using the following Formula (1). Clint (μL/min/mg)=(0.693/t1/2)÷0.2 (mg/mL)×1000 (1) […]
For orientation: Microsomes from liver hold many membrane-bound enzymes, among them those of drug oxidation.

On to `Cc1ccccc1C(=O)Nc1ccc(C(=O)N2CCCC(O)c3cc(Cl)ccc32)c(C)c1` (stereo not drawn) [Tolvaptan, tolvaptan, reference compound], for which the microsomal CLint at 1 μM was 214 ± 4.3 µL/min/mg.

In the case of `[2H]C1([2H])CC([2H])([2H])C([2H])(O)c2cc(Cl)ccc2N1C(=O)c1ccc(NC(=O)c2ccccc2C)cc1C` (stereo not drawn) [Example 4, N-(4-(7-chloro-5-hydroxy-2,2,4,4,5-pentadeutero-1H-benzo[b]azepine-1-carbonyl)-3-methylphenyl)-2-methylbenzamide], the microsomal CLint at 1 μM stood at 166 ± 5.3 µL/min/mg. The “metabolic stability compared to tolvaptan” value (human liver microsomes, two-tailed Dunnett's test, p<0.001) was “significantly improved metabolic stability compared to tolvaptan”.
